# From ChEMBL document CHEMBL1201861, “Genomics of Drug Sensitity in Cancer screening data, Wellcome Trust Sanger Institute”
# Experiments:
# Test in all cases: cells
# ES7 = format: functional, cell-based, Homo sapiens; conditions: Homo sapiens, ES7;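 also: growth inhibition of cultured human ES7 cells, read out as cell viability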
# Description: SANGER: Inhibition of human ES7 cell growth in a cell viability assay.
# EW-13 = format: functional, cell-based; conditions: Homo sapiens;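 also: growth inhibition of EW-13 cells, read out with a cell viability assay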
# Description: SANGER: Inhibition of human EW-13 cell growth in a cell viability assay.
# SCH = format: functional, cell-based, Homo sapiens; conditions: Homo sapiens, SCH;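 also: growth inhibition of human SCH cells, read out in a cell viability assay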
# Description: SANGER: Inhibition of human SCH cell growth in a cell viability assay.
# RPMI-2650 = format: functional, cell-based, Homo sapiens; conditions: Homo sapiens, RPMI-2650
# Description: SANGER: Inhibition of human RPMI-2650 cell growth in a cell viability assay.
# RCM-1 = format: functional, cell-based, Homo sapiens; conditions: Homo sapiens, RCM-1;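 also: growth inhibition of the RCM-1 line, determined with a cell viability readout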
# Description: SANGER: Inhibition of human RCM-1 cell growth in a cell viability assay.
# KNS-42 = format: functional, cell-based, Homo sapiens; conditions: Homo sapiens, KNS-42;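 also: growth inhibition of KNS-42 cells, read out with a cell viability assay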
# Description: SANGER: Inhibition of human KNS-42 cell growth in a cell viability assay.
# D-392MG = format: functional, cell-based, Homo sapiens; conditions: Homo sapiens, D-392MG
# SH-4 = format: functional, cell-based, Homo sapiens; conditions: Homo sapiens, SH-4;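 also: growth inhibition of SH-4 cells, read out with a cell viability assay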
# Description: SANGER: Inhibition of human SH-4 cell growth in a cell viability assay.
# KARPAS-45 = format: functional, cell-based; conditions: Homo sapiens;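 also: inhibition of cell line growth, read out through a viability assay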
# Description: SANGER: Inhibition of human KARPAS-45 cell growth in a cell viability assay.
# MEG-01 = format: functional, cell-based; conditions: Homo sapiens;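 also: growth inhibition of MEG-01 cells, read out by a cell viability assay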
# Description: SANGER: Inhibition of human MEG-01 cell growth in a cell viability assay.
# KYSE-520 cell line = format: functional, cell-based, Homo sapiens; conditions: Homo sapiens, KYSE-520;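 also: growth inhibition of human KYSE-520 cells, read out with a viability assay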
# Description: SANGER: Inhibition of human KYSE-520 cell growth in a cell viability assay.
# TE-12 = format: functional, cell-based; conditions: Homo sapiens;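 also: growth inhibition of TE-12 cells, read out by a cell viability assay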
# Description: SANGER: Inhibition of human TE-12 cell growth in a cell viability assay.
# C-33-A = format: functional, cell-based, Homo sapiens; conditions: Homo sapiens, C-33-A;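 also: cell viability assay measuring growth inhibition of C-33-A cells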
# Description: SANGER: Inhibition of human C-33-A cell growth in a cell viability assay.
# ABC-1 = format: functional, cell-based, Homo sapiens; conditions: Homo sapiens, ABC-1;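 also: growth inhibition of human ABC-1 cells, read out by a cell viability assay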
# Description: SANGER: Inhibition of human ABC-1 cell growth in a cell viability assay.
# J-RT3-T3-5 = format: functional, cell-based; conditions: Homo sapiens;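 also: cell viability assay measuring growth inhibition of human J-RT3-T3-5 cells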
# Description: SANGER: Inhibition of human J-RT3-T3-5 cell growth in a cell viability assay.
# GR-ST = format: functional, cell-based; conditions: Homo sapiens
# Description: SANGER: Inhibition of human GR-ST cell growth in a cell viability assay.
# KLE = format: functional, cell-based, Homo sapiens; conditions: Homo sapiens, KLE;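 also: growth inhibition of human KLE cells, read out with a cell viability assay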
# Description: SANGER: Inhibition of human KLE cell growth in a cell viability assay.
# CAL-12T = format: functional, cell-based, Homo sapiens; conditions: Homo sapiens, CAL-12T;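 also: growth inhibition of human CAL-12T cells, read out with a cell viability assay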
# Description: SANGER: Inhibition of human CAL-12T cell growth in a cell viability assay.
# HLE = format: functional, cell-based, Homo sapiens; conditions: Homo sapiens, HLE;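 also: growth inhibition of human HLE cells, read out by a cell viability assay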
# Description: SANGER: Inhibition of human HLE cell growth in a cell viability assay.
# EKVX = format: functional, cell-based, Homo sapiens; conditions: Homo sapiens, EKVX;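 also: growth inhibition of human EKVX cells, read out with a cell viability assay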
# Description: SANGER: Inhibition of human EKVX cell growth in a cell viability assay.
# COLO-320-HSR = format: functional, cell-based; conditions: Homo sapiens;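 also: growth inhibition of COLO-320-HSR cells, determined with a cell viability assay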
# Description: SANGER: Inhibition of human COLO-320-HSR cell growth in a cell viability assay.
# MZ2-MEL = format: functional, cell-based, Homo sapiens; conditions: Homo sapiens, MZ2-MEL;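 also: growth inhibition of MZ2-MEL cells read out with a cell viability assay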
# Description: SANGER: Inhibition of human MZ2-MEL cell growth in a cell viability assay.
# ATN-1 = format: functional, cell-based; conditions: Homo sapiens;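 also: growth inhibition of human ATN-1 cells, read out with a cell viability assay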
# Description: SANGER: Inhibition of human ATN-1 cell growth in a cell viability assay.
# COR-L105 = format: functional, cell-based, Homo sapiens; conditions: Homo sapiens, COR-L105;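 also: cell growth inhibition determined with a viability assay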
# Description: SANGER: Inhibition of human COR-L105 cell growth in a cell viability assay.
# SW-620 = format: functional, cell-based, Homo sapiens; conditions: Homo sapiens, SW-620;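 also: growth inhibition of human SW-620 cells, measured by a cell viability assay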
# Description: SANGER: Inhibition of human SW620 cell growth in a cell viability assay.
# NCI-H2228 = format: functional, cell-based, Homo sapiens; conditions: Homo sapiens, NCI-H2228;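 also: growth inhibition of human NCI-H2228 cells, read out by a cell viability assay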
# Description: SANGER: Inhibition of human NCI-H2228 cell growth in a cell viability assay.
# Huh-7 = format: functional, cell-based, Homo sapiens; conditions: Homo sapiens, Huh-7;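 also: HuH-7 cell growth inhibition, read out with a cell viability assay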
# Description: SANGER: Inhibition of human HuH-7 cell growth in a cell viability assay.
# RS4-11 = format: functional, cell-based; conditions: Homo sapiens;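 also: growth inhibition of RS4-11 cells, read out by a cell viability assay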
# Description: SANGER: Inhibition of human RS4-11 cell growth in a cell viability assay.
# SJSA-1 = format: functional, cell-based, Homo sapiens; conditions: Homo sapiens, SJSA-1;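 also: growth inhibition of human SJSA-1 cells, read out through a cell viability measurement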
# Description: SANGER: Inhibition of human SJSA-1 cell growth in a cell viability assay.
# NCI-H1581 = format: functional, cell-based, Homo sapiens; conditions: Homo sapiens, NCI-H1581;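 also: cell growth inhibition read out by a viability assay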
# Description: SANGER: Inhibition of human NCI-H1581 cell growth in a cell viability assay.
# AGS = format: functional, cell-based, Homo sapiens; conditions: Homo sapiens, AGS;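 also: growth inhibition of AGS cells, determined with a cell viability assay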
# Description: SANGER: Inhibition of human AGS cell growth in a cell viability assay.
# HPAF-II = format: functional, cell-based, Homo sapiens; conditions: Homo sapiens, HPAF-II;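 also: growth inhibition of HPAF-II cells, read out with a cell viability assay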
# Description: SANGER: Inhibition of human HPAF-II cell growth in a cell viability assay.
# SHP77 = format: functional, cell-based, Homo sapiens, SHP-77; conditions: Homo sapiens, SHP77;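 also: growth inhibition of human SHP-77 cells measured by a cell viability assay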
# Description: SANGER: Inhibition of human SHP-77 cell growth in a cell viability assay.
# GCT = format: functional, cell-based, Homo sapiens; conditions: Homo sapiens, GCT;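 also: GCT cell line proliferation inhibition, read out with a cell viability assay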
# Description: SANGER: Inhibition of human GCT cell growth in a cell viability assay.
# SW626 = format: functional, cell-based, Homo sapiens; conditions: Homo sapiens, SW626;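 also: growth inhibition of SW626 cells, measured with a cell viability assay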
# Description: SANGER: Inhibition of human SW626 cell growth in a cell viability assay.
# NCI-H1792 = format: functional, cell-based, Homo sapiens; conditions: Homo sapiens, NCI-H1792;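 also: growth inhibition of human NCI-H1792 cells, read out as cell viability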
# Description: SANGER: Inhibition of human NCI-H1792 cell growth in a cell viability assay.
# LC-2-ad = format: functional, cell-based, Homo sapiens; conditions: Homo sapiens, LC-2-ad;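 also: growth inhibition of human LC-2-ad cells, read out with a cell viability assay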
# Description: SANGER: Inhibition of human LC-2-ad cell growth in a cell viability assay.
# A-431 = format: functional, cell-based, Homo sapiens; conditions: Homo sapiens, A-431;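 also: growth inhibition of A-431 cells, determined with a cell viability read-out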
# Description: SANGER: Inhibition of human A431 cell growth in a cell viability assay.
# HT = format: functional, cell-based; conditions: Homo sapiens
# Description: SANGER: Inhibition of human HT cell growth in a cell viability assay.
# DU-4475 = format: functional, cell-based; conditions: Homo sapiens
# Description: SANGER: Inhibition of human DU-4475 cell growth in a cell viability assay.
# OVCAR-4 = format: functional, cell-based, Homo sapiens; conditions: Homo sapiens, OVCAR-4;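 also: growth inhibition of human OVCAR-4 cells, measured with a cell viability assay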
# Description: SANGER: Inhibition of human OVCAR-4 cell growth in a cell viability assay.
# SF-126 = format: functional, cell-based, Homo sapiens; conditions: Homo sapiens, SF-126;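 also: growth inhibition of human SF126 cells, read out with a cell viability assay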
# Description: SANGER: Inhibition of human SF126 cell growth in a cell viability assay.
# SW 962 = format: functional, cell-based, Homo sapiens; conditions: Homo sapiens, SW 962;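 also: growth inhibition of human SW962 cells, read out by a cell viability assay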
# Description: SANGER: Inhibition of human SW962 cell growth in a cell viability assay.
# SK-MEL-28 = format: functional, cell-based; conditions: Homo sapiens;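 also: growth inhibition of human SK-MEL-28 cells, read out with a cell viability assay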
# Description: SANGER: Inhibition of human SK-MEL-28 cell growth in a cell viability assay.
# MKN-28 = format: functional, cell-based, Homo sapiens; conditions: Homo sapiens, MKN-28;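 also: cell viability assay read-out, IC50 reflects suppression of growth of human MKN-28 cells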
# Description: SANGER: Inhibition of human MKN28 cell growth in a cell viability assay.
# SW756 = format: functional, cell-based, Homo sapiens; conditions: Homo sapiens, SW756;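 also: growth inhibition of human SW756 cells, read out with a cell viability assay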
# Description: SANGER: Inhibition of human SW756 cell growth in a cell viability assay.
# SW13 = format: functional, cell-based, Homo sapiens; conditions: Homo sapiens, SW13;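 also: IC50 is inhibition of SW13 cell growth, read out with a cell viability assay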
# Description: SANGER: Inhibition of human SW13 cell growth in a cell viability assay.
# MZ1-PC = format: functional, cell-based, Homo sapiens; conditions: Homo sapiens, MZ1-PC;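 also: cell viability assay measuring growth inhibition of human MZ1-PC cells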
# Description: SANGER: Inhibition of human MZ1-PC cell growth in a cell viability assay.
# KYSE-150 cell line = format: functional, cell-based, Homo sapiens; conditions: Homo sapiens, KYSE-150;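 also: growth inhibition of human KYSE-150 cells, read out with a cell viability assay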
# Description: SANGER: Inhibition of human KYSE-150 cell growth in a cell viability assay.
# LU-139 = format: functional, cell-based; conditions: Homo sapiens
# Description: SANGER: Inhibition of human LU-139 cell growth in a cell viability assay.
# SK-UT-1 = format: functional, cell-based, Homo sapiens; conditions: Homo sapiens, SK-UT-1;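 also: growth inhibition of SK-UT-1 cells, measured by a cell viability assay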
# Description: SANGER: Inhibition of human SK-UT-1 cell growth in a cell viability assay.
# EW-24 = format: functional, cell-based; conditions: Homo sapiens;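 also: human EW-24 cancer cell line, growth inhibition read out via a cell viability assay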
# Description: SANGER: Inhibition of human EW-24 cell growth in a cell viability assay.
structure (smiles),measurement,setting,value
COc1cc(F)c(F)c(Nc2ccc(I)cc2F)c1NS(=O)(=O)C1(CC(O)CO)CC1 (stereo not given),IC50,ES7,> 5 µM
same,IC50,EW-13,> 5 µM
same,IC50,SCH,> 5 µM
same,IC50,RPMI-2650,> 5 µM
same,IC50,RCM-1,0.136 µM
same,IC50,KNS-42,> 5 µM
same,IC50,D-392MG,> 5 µM
same,IC50,SH-4,0.0856 µM
same,IC50,KARPAS-45,1.14 µM
same,IC50,MEG-01,0.786 µM
same,IC50,KYSE-520 cell line,2.96 µM
same,IC50,TE-12,> 5 µM
same,IC50,C-33-A,> 5 µM
same,IC50,ABC-1,> 5 µM
same,IC50,J-RT3-T3-5,> 5 µM
same,IC50,GR-ST,> 5 µM
same,IC50,KLE,> 5 µM
same,IC50,CAL-12T,1.07 µM
same,IC50,HLE,> 5 µM
same,IC50,EKVX,> 5 µM
same,IC50,COLO-320-HSR,> 5 µM
same,IC50,MZ2-MEL,0.319 µM
same,IC50,ATN-1,> 5 µM
same,IC50,COR-L105,> 5 µM
same,IC50,SW-620,0.276 µM
same,IC50,NCI-H2228,> 5 µM
same,IC50,Huh-7,1.47 µM
same,IC50,RS4-11,> 5 µM
same,IC50,SJSA-1,0.158 µM
same,IC50,NCI-H1581,> 5 µM
same,IC50,AGS,0.24 µM
same,IC50,HPAF-II,1.02 µM
same,IC50,SHP77,> 5 µM
same,IC50,GCT,> 5 µM
same,IC50,SW626,0.279 µM
same,IC50,NCI-H1792,2.45 µM
same,IC50,LC-2-ad,> 5 µM
same,IC50,A-431,2.92 µM
same,IC50,HT,> 5 µM
same,IC50,DU-4475,0.0183 µM
same,IC50,OVCAR-4,> 5 µM
same,IC50,SF-126,> 5 µM
same,IC50,SW 962,1.5 µM
same,IC50,SK-MEL-28,0.115 µM
same,IC50,MKN-28,> 5 µM
same,IC50,SW756,1.23 µM
same,IC50,SW13,4.33 µM
same,IC50,MZ1-PC,1.34 µM
same,IC50,KYSE-150 cell line,3.4 µM
same,IC50,LU-139,> 5 µM
Cn1cc(C2=C(c3ccc(Cl)cc3Cl)C(=O)NC2=O)c2ccccc21 [SB-216763],IC50,ES7,> 10 µM
same,IC50,EW-13,> 10 µM
same,IC50,SCH,> 10 µM
same,IC50,RPMI-2650,> 10 µM
same,IC50,RCM-1,> 10 µM
same,IC50,KNS-42,> 10 µM
same,IC50,D-392MG,> 10 µM
same,IC50,SH-4,> 10 µM
same,IC50,KARPAS-45,> 10 µM
same,IC50,MEG-01,> 10 µM
same,IC50,KYSE-520 cell line,> 10 µM
same,IC50,TE-12,> 10 µM
same,IC50,C-33-A,> 10 µM
same,IC50,ABC-1,> 10 µM
same,IC50,J-RT3-T3-5,> 10 µM
same,IC50,GR-ST,> 10 µM
same,IC50,KLE,> 10 µM
same,IC50,CAL-12T,> 10 µM
same,IC50,HLE,> 10 µM
same,IC50,EKVX,> 10 µM
same,IC50,COLO-320-HSR,> 10 µM
same,IC50,MZ2-MEL,> 10 µM
same,IC50,ATN-1,> 10 µM
same,IC50,COR-L105,> 10 µM
same,IC50,SW-620,> 10 µM
same,IC50,NCI-H2228,> 10 µM
same,IC50,Huh-7,> 10 µM
same,IC50,RS4-11,8.24 µM
same,IC50,SJSA-1,> 10 µM
same,IC50,NCI-H1581,> 10 µM
same,IC50,AGS,> 10 µM
same,IC50,HPAF-II,> 10 µM
same,IC50,SHP77,> 10 µM
same,IC50,GCT,> 10 µM
same,IC50,SW626,> 10 µM
same,IC50,NCI-H1792,> 10 µM
same,IC50,LC-2-ad,> 10 µM
same,IC50,A-431,> 10 µM
same,IC50,HT,> 10 µM
same,IC50,SK-UT-1,> 10 µM
same,IC50,EW-24,> 10 µM
same,IC50,OVCAR-4,> 10 µM
same,IC50,SF-126,> 10 µM
same,IC50,SW 962,> 10 µM
same,IC50,SK-MEL-28,> 10 µM
same,IC50,MKN-28,> 10 µM
same,IC50,SW13,> 10 µM
same,IC50,MZ1-PC,> 10 µM
same,IC50,KYSE-150 cell line,> 10 µM
same,IC50,LU-139,> 10 µM
COc1ccc(-c2ccc3c(N4CCOC[C@@H]4C)nc(N4CCOC[C@@H]4C)nc3n2)cc1CO [AZD-8055],IC50,ES7,0.274 µM
same,IC50,EW-13,> 2 µM
same,IC50,SCH,1.03 µM
same,IC50,RPMI-2650,1.68 µM
same,IC50,RCM-1,> 2 µM
same,IC50,KNS-42,> 2 µM
same,IC50,D-392MG,> 2 µM
same,IC50,SH-4,1.08 µM
same,IC50,KARPAS-45,0.0337 µM
same,IC50,MEG-01,> 2 µM
same,IC50,KYSE-520 cell line,> 2 µM
same,IC50,TE-12,1.41 µM
same,IC50,C-33-A,0.904 µM
same,IC50,ABC-1,> 2 µM
same,IC50,J-RT3-T3-5,0.532 µM
same,IC50,GR-ST,0.53 µM
same,IC50,KLE,> 2 µM
same,IC50,CAL-12T,0.78 µM
same,IC50,HLE,0.748 µM
same,IC50,EKVX,1.14 µM
same,IC50,COLO-320-HSR,> 2 µM
same,IC50,MZ2-MEL,0.409 µM
same,IC50,ATN-1,0.706 µM
same,IC50,COR-L105,> 2 µM
same,IC50,SW-620,> 2 µM
same,IC50,NCI-H2228,1.27 µM
same,IC50,Huh-7,0.434 µM
same,IC50,RS4-11,0.759 µM
same,IC50,SJSA-1,0.446 µM
same,IC50,NCI-H1581,0.19 µM
same,IC50,AGS,1.09 µM
same,IC50,HPAF-II,0.808 µM
same,IC50,SHP77,> 2 µM
same,IC50,GCT,1.34 µM
same,IC50,SW626,> 2 µM
same,IC50,NCI-H1792,0.971 µM
same,IC50,LC-2-ad,0.221 µM
same,IC50,A-431,0.831 µM
same,IC50,HT,0.294 µM
same,IC50,DU-4475,0.0805 µM
same,IC50,OVCAR-4,0.819 µM
same,IC50,SF-126,0.887 µM
same,IC50,SW 962,0.472 µM
same,IC50,SK-MEL-28,0.559 µM
same,IC50,MKN-28,> 2 µM
same,IC50,SW756,> 2 µM
same,IC50,SW13,0.984 µM
same,IC50,MZ1-PC,> 2 µM
same,IC50,KYSE-150 cell line,0.662 µM
same,IC50,LU-139,0.0233 µM
